# Laboratory results taken from patent US20250241347A1, “COMPOSITIONS AND METHODS FOR TASTE MODULATION” (INTERNATIONAL FLAVORS & FRAGRANCES INC., priority 2019, published 2025).
# Tests used:
# [1] = Masking effect on sorbic acid, trained panel; design: species or system human; conditions: base sorbic acid 150 ppm in water; for Masking Intensity: panel average, scale 0-5
# Text: (§1) Preparation of Test Samples: […], oroxylin A-7 glucouronide, wogonoside, baicalein, oroxylin A and wogonin were purchased commercially. S. baicalensis extract (“Extract”) and cabohydrase-treated S. baicalensis extract (“Treated Extract”) were obtained as above in Example 1.
# (§2) Subsequently, all compounds and extracts were applied to different bases for evaluating their off-taste masking functions.
# (§3) Testing Procedure: The masking effects on the off-tastes (bitterness, sourness, astringency, lingering and drying aftertaste, etc.) associated with various food components was evaluated by a group of 16 trained panelist. Each provided a rank of masking intensity using the intensity scales of 0 to 5, where 0 represents “no masking effect,” 1 represents “minimal masking intensity” and 5 represents “the most masking intensity.” The average of the reported making intensity is presented in the following examples.
# A base solution of sorbic acid was prepared in water (150 ppm). […] The flavor profile of the sorbic acid solutions with compounds or extracts were further evaluated and is reported in the following: […]
# [2] = Masking effect on Reb M, trained panel; design: species or system human; conditions: base Reb M 200 ppm in water; for Masking Intensity: panel average, scale 0-5
# Text: as §1, §2, §3
# A base solution of Reb M was prepared in water (200 ppm). […] The flavor profile of the Reb M solutions with compounds or extracts were further evaluated and is reported in the following: […]
# [3] = system: healthy subjects; conditions: oral doses in the range of 100-2800 mg; cited from earlier work
# [4] = Masking effect on pea protein, trained panel; design: species or system human; conditions: base TRUPRO pea protein 5% in water, test sample 0.5 ppm; for Masking Intensity: panel average, scale 0-5
# Text: as §1, §2, §3
# A base solution of TRUPRO® pea protein (Solae LLC) was prepared in water (5%). […] The flavor profile of the pea protein solutions with compounds or extracts were further evaluated and is reported in the following: […]
# [5] = Masking effect on citric acid, trained panel; design: species or system human; conditions: base citric acid 300 ppm in water; for Masking Intensity: panel average, scale 0-5
# Text: as §1, §2, §3
# A base solution of citric acid was prepared in water (300 ppm). […] The flavor profile of the citric acid solutions with compounds or extracts were further evaluated and is reported in the following: […]
# [6] = Masking effect on Acesulfame-K, trained panel; design: species or system human; conditions: base Acesulfame-K 300 ppm in water, test sample 0.5 ppm; for Masking Intensity: panel average, scale 0-5
# Text: as §1, §2, §3
# A base solution of Acesulfame-K was prepared in water (300 ppm). […] The flavor profile of the Acesulfame-K solutions with compounds or extracts were further evaluated and is reported in the following: […]
# [7] = Masking effect on Reb A, trained panel; design: species or system human; conditions: base Reb A 200 ppm in water; for Masking Intensity: panel average, scale 0-5
# Text: as §1, §2, §3
# A base solution of Reb A was prepared in water (200 ppm). […] The flavor profile of the Reb A solutions with compounds or extracts were further evaluated and is reported in the following: […]
# [8] = Masking effect on benzoic acid, trained panel; design: species or system human; conditions: base benzoic acid 250 ppm in water, test sample 0.5 ppm; for Masking Intensity: panel average, scale 0-5
# Text: as §1, §2, §3
# A base solution of benzoic acid was prepared in water (250 ppm). […] The flavor profile of the benzoic acid solutions with compounds or extracts was further evaluated and is reported in the following: […]
# [9] = Taste modulating activity of the individual compounds; conditions: individual compounds, Example 1
# Experimental: With bio-transformation, most baicalin was converted to baicalein; oroxylin A glucuronide was converted to oroxylin A; and wogonoside was converted to wogonin. The activity of the individual compounds was also analyzed for taste modulating activity.
# [10] = Taste modulation in applications (Table 3), malic/citric acid base; conditions: base malic acid 1000 ppm and citric acid 2000 ppm in water; 1 ppm, composition composed only of wogonin
structure (smiles),measurement,setting,value
"O=c1cc(-c2ccccc2)oc2cc(O)c(O)c(O)c12 [Baicalein, 5,6,7-trihydroxyflavone]",Masking Intensity,[1]; test sample 0.001 ppm,0
same,Masking Intensity,[1]; test sample 0.01 ppm,1
same,Masking Intensity,[1]; test sample 0.1 ppm,2
same,Masking Intensity,[1]; test sample 0.5 ppm,3
same,Flavor Profile,[1]; test sample 1 ppm,"Reduced astringency, sourness, and drying"
same,Masking Intensity,[1]; test sample 1 ppm,4
same,Flavor Profile,[1]; test sample 10 ppm,"Reduced astringency, sourness, and drying"
same,Masking Intensity,[1]; test sample 10 ppm,4
same,Flavor Profile,[1]; test sample 50 ppm,"Reduced astringency, sourness, and drying"
same,Masking Intensity,[1]; test sample 50 ppm,3
same,Flavor Profile,[2]; test sample 0.5 ppm,Slightly reduced bitterness and lingering
same,Masking Intensity,[2]; test sample 0.5 ppm,3
same,safety and tolerability,[3],safe and well-tolerated
same,Flavor Profile,[4],"Reduced astringency and bitterness, less"
same,Masking Intensity,[4],3
same,Masking Intensity,[5]; test sample 0.01 ppm,1
same,Flavor Profile,[5]; test sample 0.1 ppm,Slightly reduced tart taste
same,Masking Intensity,[5]; test sample 0.1 ppm,2
same,Flavor Profile,[5]; test sample 0.5 ppm,Reduced tart taste
same,Masking Intensity,[5]; test sample 0.5 ppm,3
same,Flavor Profile,[5]; test sample 1 ppm,Reduced tart taste
same,Masking Intensity,[5]; test sample 1 ppm,4
same,Flavor Profile,[5]; test sample 10 ppm,"Reduced tart taste, very slight bitterness"
same,Masking Intensity,[5]; test sample 10 ppm,3
same,Flavor Profile,[5]; test sample 50 ppm,"Reduced tart taste, noticeable bitterness"
same,Masking Intensity,[5]; test sample 50 ppm,2
same,Flavor Profile,[6],Slightly reduced bitterness and lingering
same,Masking Intensity,[6],2
same,Masking Intensity,[7]; test sample 0.5 ppm,3
same,Masking Intensity,[8],3
same,taste modulating activity,[9],more active
"COc1c(O)cc(O)c2c(=O)cc(-c3ccccc3)oc12 [Wogonin, 5,7-dihydroxy-8-methoxyflavone]",Flavor Profile,[1]; test sample 0.5 ppm,"Reduced astringency, sourness, and drying"
same,Masking Intensity,[1]; test sample 0.5 ppm,5
same,Masking Intensity,[2]; test sample 0.01 ppm,1
same,Flavor Profile,[2]; test sample 0.1 ppm,Slightly reduced bitterness and lingering
same,Masking Intensity,[2]; test sample 0.1 ppm,3
same,Flavor Profile,[2]; test sample 0.5 ppm,"Reduced bitterness and lingering aftertaste,"
same,Masking Intensity,[2]; test sample 0.5 ppm,5
same,Flavor Profile,[2]; test sample 10 ppm,"Slightly reduced lingering aftertaste, very"
same,Masking Intensity,[2]; test sample 10 ppm,2
same,Flavor Profile,[2]; test sample 50 ppm,"Slightly reduced lingering aftertaste,"
same,Masking Intensity,[2]; test sample 50 ppm,1
same,Functions,[10],"Masked the sharp sourness, added mouthfeel"
same,Flavor Profile,[4],"Reduced astringency and bitterness, less"
same,Masking Intensity,[4],5
same,Flavor Profile,[5]; test sample 0.5 ppm,"Reduced tart taste, more pleasant"
same,Masking Intensity,[5]; test sample 0.5 ppm,4
same,Flavor Profile,[6],"Reduced bitterness and lingering aftertaste,"
same,Masking Intensity,[6],4
same,Masking Intensity,[7]; test sample 0.001 ppm,1
same,Flavor Profile,[7]; test sample 0.01 ppm,"Slightly reduced astringency, licorice flavor"
same,Masking Intensity,[7]; test sample 0.01 ppm,2
same,Masking Intensity,[7]; test sample 0.1 ppm,3
same,Masking Intensity,[7]; test sample 0.5 ppm,4
same,Masking Intensity,[7]; test sample 1 ppm,5
same,Masking Intensity,[7]; test sample 10 ppm,3
same,Masking Intensity,[7]; test sample 50 ppm,2
same,Flavor Profile,[8],"Reduced astringency, sourness, and drying"
same,Masking Intensity,[8],5
same,taste modulating activity,[9],more active
